Experimental findings from a melting point compilation (Tetko et al.) are described below.

The melting point is the temperature of the solid-liquid transition.

As for `CCN(C)C(=O)c1cccc(C(=O)O)c1`, the melting point is 102 to 104 °C.
Next, `O=C(O)Cc1cccc(OCc2ccc(Cl)cc2)c1`: 126 to 128 °C; `Nc1ccc(NC(=O)C2CC2)cc1C(F)(F)F`: 145 to 147 °C; `CCOC(=O)c1c[nH]n(C)c1=N`: 95 to 97 °C.
`COc1cc(C#N)ccc1OC(C)C` returned a melting point of 71 to 73 °C.
`CCOC(=O)c1csc(Cc2ccc(NC(=O)OC(C)(C)C)cc2)n1` returned a melting point of 135 to 137 °C.
The result for `CNc1ccc(Br)nc1` reads 57 to 59 °C; that for `Cc1cc(NC(=O)OC(C)(C)C)ccn1`, 167 to 169 °C.
`CC(C)(C)OC(=O)NC(C(N)=NO)c1ccccc1` (centres undefined): the melting point fell in the range of 177 to 179 °C.
Next, `O=C(O)CCOc1ccc(F)cc1F`: 76 to 78 °C; `COc1ccc(C2CCCCC(O)C2)cc1` (centres undefined): 49 to 51 °C.
With `O=C(O)c1ccc(-n2ccnn2)cc1`, the melting point is 279 to 281 °C.
Turning to `CC(Nc1ccc(Cl)nn1)c1ccccc1` (centres undefined), the melting point lay in the range of 159 to 161 °C.
`CC1CN(C(=O)CCl)CC(C)O1` (centres undefined) yielded a melting point of 61 to 63 °C.
Turning to `N#Cc1cccc(-n2cncn2)c1`, the melting point was in the range of 150 to 152 °C.
`O=C(O)c1ccc(Cl)o1` displayed a melting point of 180 to 182 °C.
The result for `NNC(=O)CC(F)(F)F` reads 90 to 92 °C.
`CC(Sc1ccc([N+](=O)[O-])cc1)C(=O)O` (centres undefined) showed a melting point of 114 to 116 °C.
Regarding `CCOc1cc(C=O)ccc1OCc1ccc(C(C)(C)C)cc1`, the melting point was in the range of 113 to 115 °C.
As to `NC(=O)CSc1ccccc1C(=O)O`, the melting point was in the range of 210 to 212 °C.
`N#Cc1cccc(OCCCCC(=O)O)c1`: the melting point lay in the range of 78 to 80 °C.
The molecule `O=C(O)c1ccc(N2CCCC2)c(F)c1` returned a melting point of 269 to 271 °C.
The result for `O=C(O)c1ccc(S(=O)(=O)Cl)c(F)c1` reads 188 to 190 °C.
The result for `NC(=O)CCOc1cccc(F)c1` reads 94 to 96 °C; that for `O=S(=O)(Cl)c1ccc(Cl)c2c(Cl)cccc12`, 115 to 117 °C.
For `O=C(O)c1nn(-c2ccccc2Cl)c2c1CCCC2`, the melting point was 232 to 234 °C.
Next, `CC1CCN(C(=O)c2ccc(Cl)nc2)CC1`: 69 to 71 °C.
Consider `O=C(O)CSc1cc(Cl)ccc1Cl`, for which the melting point lay within 129 to 131 °C.
With `CC(C)CCNC(=O)C1CSCN1` (centres undefined), the melting point fell in the range of 162 to 164 °C.
Next, `Cn1cnnc1CN`: 32 to 34 °C; `Cc1ccccc1Nc1nc(N)nc(CCl)n1`: 203 to 207 °C.
Turning to `Nc1ccc(Br)c(C(=O)O)c1`, the melting point lay in the range of 171 to 179 °C.
In the case of `OCc1ccc(CCl)cc1`, the melting point was in the range of 55 to 57 °C.
Consider `NCc1cc2c([nH]c1=O)CCC2`, for which the melting point was 129 to 131 °C.
`Cc1cc(C)cc(-c2cc(N)[nH]n2)c1` came in with a melting point of 75 to 77 °C.
The result for `CCN(CC)S(=O)(=O)c1ccc(OC(C)C)c(N)c1` reads 89 to 91 °C; that for `Nc1ccc(NC(=O)c2ccoc2)cc1C(F)(F)F`, 121 to 123 °C; that for `Cc1c(C(=O)O)sc2nc(Cc3ccccc3)[nH]c(=O)c12`, 342 to 344 °C.
As for `O=C(O)c1cc(Cl)ccc1OCC(F)(F)F`, the melting point was 121 to 123 °C.
As to `CC(C)NC(=O)Cc1ccc(N)cc1`, the melting point was 153 to 155 °C.
For `Nc1nnc(-c2cc3c(s2)CCCC3)o1`, the melting point lay within 266 to 268 °C.
As for `CCn1c(C(C)=O)nc2ccccc21`, the melting point fell in the range of 76 to 78 °C.
As for `COC(=O)c1cc([N+](=O)[O-])c(Br)cc1F`, the melting point was 72 to 74 °C.
On to `CC(C)c1ccc(OCCC(=O)O)cc1`, for which the melting point fell in the range of 113 to 115 °C.
`Cc1ccc(NC(=O)CCl)cc1Cl` gave a melting point of 73 to 75 °C.
On to `Cc1cc(C=O)c(C)n1-c1cccc(F)c1`, for which the melting point fell in the range of 78 to 80 °C.
The result for `Cc1nn(Cc2c(Cl)cccc2Cl)c(Cl)c1C(=O)O` reads 187 to 189 °C; that for `CCCCC(NC(N)=O)C(=O)O` (centres undefined), 166 to 168 °C.
Next, `N#Cc1ccccc1OCC(=O)O`: 182 to 184 °C; `Nc1ccc(C(=O)Nc2ccc3cn[nH]c3c2)cc1`: 272 to 274 °C.
Next, `O=C(O)c1cscn1`: 195 to 197 °C.
`Cc1nc(S)oc1C` yielded a melting point of 132 to 134 °C.
Regarding `CC(C)(C(=O)O)c1ccc2ccccc2c1`, the melting point is 146 to 148 °C.
As to `O=C(O)c1cc(C2CC2)nc2ccc(F)cc12`, the melting point was in the range of 196 to 198 °C.
For `COc1cc(NC(=O)c2ccco2)c(C(=O)O)cc1OC`, the melting point fell in the range of 88 to 90 °C.
Molecule `CCn1c(C=O)nc2ccccc21` had a melting point of 49 to 51 °C.
Regarding `CC(O)c1nc2cc(Cl)ccc2n1C` (centres undefined), the melting point was 136 to 138 °C.
Take `O=C(O)c1ccc(SC2CC2)cc1`: the melting point was in the range of 156 to 158 °C.
Molecule `CS(=O)(=O)c1ccc(OCCCCC(=O)O)cc1` registered a melting point of 125 to 127 °C.
`CN(CCO)C(=O)c1ccc(O)cc1` yielded a melting point of 123 to 125 °C.
Regarding `CCOc1ccccc1OCC(=O)NN`, the melting point was in the range of 94 to 96 °C.
In turn, `O=C(Nc1ccccc1C(=O)O)c1ccccc1Br` returned a melting point of 201 to 203 °C.
`Cn1cc(CC2CC(=O)NC2=O)cn1` (centres undefined) registered a melting point of 116 to 118 °C.
Regarding `Cc1cc(N)nc(C)c1Br`, the melting point lay within 147 to 149 °C.
In turn, `O=C(O)c1nn(-c2ccc(F)cc2)c2c1CCC2` had a melting point of 202 to 204 °C.
Turning to `CC1(C)CCc2[nH]c3ccccc3c2C1`, the melting point is 103 to 105 °C.
`CCC(C)(CNC(=O)OC(C)(C)C)C(=O)O` (centres undefined) displayed a melting point of 113 to 115 °C.
Next, `CN(C)S(=O)(=O)c1ccc2oc(NN)nc2c1`: 218 to 220 °C.
The result for `O=S(=O)(Cl)c1ccc(-n2cccn2)c(F)c1` reads 104 to 106 °C.
For `O=C(Cl)c1cc(Cl)nc2ccccc12`, the melting point lay in the range of 85 to 87 °C.
The molecule `N#Cc1nccnc1Oc1ccc(N)cc1` returned a melting point of 170 to 172 °C.
`CCOC(=O)NCCC(=O)O` gave a melting point of 47 to 49 °C.
Next, `Cc1cc(I)ccc1[N+](=O)[O-]`: 79 to 81 °C; `CC1CC(C)CN(S(=O)(=O)c2ccc(N)cc2)C1` (centres undefined): 157 to 159 °C.
Next, `Cn1nc(CCl)[nH]c1=O`: 139 to 141 °C.
The molecule `Cc1ccc(NC(=O)C(=O)NN)cc1C` came in with a melting point of 182 to 184 °C.
Next, `O=C(CCl)NNC(=O)C1CCC1`: 199 to 201 °C.
In the case of `CC(=O)CC(=O)Nc1ccc(F)cc1`, the melting point lay within 101 to 103 °C.
For `CCOc1cc(C#N)cc(Br)c1O`, the melting point was in the range of 140 to 142 °C.
As to `O=C(CO)N1CCCC1`, the melting point fell in the range of 37 to 39 °C.
In the case of `Cc1cc(C=O)c(C)n1-c1ccc(F)cc1F`, the melting point was 133 to 135 °C.
For `O=C(O)c1ccc(-c2cccs2)cc1F`, the melting point is 228 to 230 °C.
Consider `CCOC(=O)c1sc(N(C)C)nc1C`, for which the melting point fell in the range of 39 to 41 °C.
Molecule `CCn1ccnc(Cl)c1=O` gave a melting point of 52 to 54 °C.
Turning to `C=CC(=O)Nc1ccc(OC)cc1[N+](=O)[O-]`, the melting point lay in the range of 124 to 126 °C.
As to `Nc1cccc(C=CC(=O)O)c1`, the melting point was 173 to 175 °C.
`CCOc1ccc(S(=O)(=O)N2CCCCC2)cc1N` registered a melting point of 134 to 136 °C.
On to `Nc1nc(-c2cccc(O)c2)cs1`, for which the melting point was in the range of 151 to 153 °C.
`CCC(C)(N)C(=O)O` (centres undefined) yielded a melting point of 276 to 278 °C.
As for `OCc1sc(N2CCOCC2)nc1-c1ccccc1`, the melting point was in the range of 118 to 120 °C.
As for `CCOC(=O)C(C)(C#N)Cc1ccncc1` (centres undefined), the melting point was 56 to 58 °C.
Next, `CC(C)CS(=O)(=O)CCC(=O)O`: 110 to 112 °C; `Cc1[nH]nc(C(=O)O)c1[N+](=O)[O-]`: 183 to 185 °C.
`NC(=NO)c1cccc(CN2CCOCC2)c1` registered a melting point of 155 to 157 °C.
With `Cc1cc(C#N)ccc1N1CC2CCC1C2` (centres undefined), the melting point fell in the range of 69 to 71 °C.
In turn, `Brc1ncn2ccccc12` gave a melting point of 77 to 79 °C.
Next, `COC(=O)c1ccc(NS(C)(=O)=O)cc1`: 147 to 149 °C; `CCOCc1nnc(N)o1`: 118 to 120 °C.
With `N#Cc1ccccc1OCc1cccc(C(=O)O)c1`, the melting point lay in the range of 153 to 155 °C.
Take `O=C(O)C1CSC(c2cccc(Br)c2)N1` (centres undefined): the melting point fell in the range of 165 to 167 °C.
The result for `CCC(C)(C)c1ccc(OCCCC(=O)O)c(C(C)(C)CC)c1` reads 99 to 101 °C.
Molecule `O=C(O)C1(c2ccccc2)CCC1` showed a melting point of 105 to 107 °C.
The result for `O=C(O)c1cccnc1N1CCN(Cc2cccc(Cl)c2)CC1` reads 188 to 190 °C; that for `O=C(O)c1cc2cc(Br)ccc2[nH]1`, 283 to 285 °C.
The result for `O=C(O)c1ccccc1OCc1cccs1` reads 87 to 89 °C; that for `Clc1nccn2nnnc12`, 99 to 101 °C.
Consider `O=c1cc(CO)nc2ccc(Br)cn12`, for which the melting point fell in the range of 204 to 206 °C.
`CSc1cccc(NC(=O)C(C)Cl)c1` (centres undefined): the melting point was in the range of 81 to 83 °C.
Next, `C=CS(=O)(=O)c1cc(F)cc([N+](=O)[O-])c1`: 90 to 92 °C; `CCOC(=O)c1cnn(-c2ccc(C(=O)O)cc2)c1C`: 201 to 203 °C; `CCc1cccc(OCC(=O)O)c1`: 66 to 70 °C.
`Cc1cc(Cl)nnc1C` showed a melting point of 45 to 47 °C.
The result for `COc1ccc(C#N)cc1C` reads 49 to 51 °C; that for `O=C(O)C1C2CCCCC21` (centres undefined), 86 to 88 °C; that for `NS(=O)(=O)c1ccc(Cl)nc1`, 154 to 156 °C.
`Cc1ccc(S(N)(=O)=O)c(C)c1`: the melting point lay within 139 to 141 °C.
Next, `Cc1nc(-c2ccc(O)cc2)cs1`: 210 to 212 °C; `Cc1ccc(-c2nc(C)c(C(=O)O)s2)c(C)c1`: 218 to 220 °C.
Next, `Fc1ccccc1CCNC1=NCCS1`: 95 to 97 °C.
`O=C1CN(/C=C/c2ccccc2)C(=O)N1`: the melting point was 224 to 226 °C.
With `Cc1ccccc1-c1nc(C(=O)O)cs1`, the melting point lay within 119 to 121 °C.
`O=C(O)CCC(=O)c1cc(Cl)ccc1Cl` yielded a melting point of 97 to 99 °C.
For the molecule `O=C(O)CCc1nc2c(F)cccc2[nH]1`, the melting point lay in the range of 185 to 187 °C.
For `CCOC(=O)c1cnn(C)c1NC(=O)CCl`, the melting point is 90 to 92 °C.
